Test results published in patent US20230123334A1, “AMINO LIPID COMPOUND, PREPARATION METHOD THEREFOR, AND APPLICATION THEREOF” (SHENZHEN SHENXIN BIOTECHNOLOGY CO., LTD., priority 2020, published 2023).

System: HEK293 cells
Assay: Preliminary screening as mRNA vectors, EGFP mRNA transfection of HEK293 cells
Format: cell-based
Conditions: EGFP mRNA 50 ng per well, 96-well plates; percentage of GFP fluorescent cells relative to total number of cells (Hoechst)
How it was run: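 HEK293 cells in DMEM plus 10% FBS transfected in 96-well format with 50 ng EGFP mRNA per well; Lipofectamine2000 served as positive control. Read-out is the percentage of GFP-fluorescent cells among total cells, counted by Hoechst nuclear stain.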

SMILES | Absolute mRNA transfection efficiency in HEK293 cells
CCCCCCCCCCCCN(CCCCCCCCCCCC)c1nc(NCC2CCN(C)CC2)nc(SCCCCCC)n1 [D10S6^2N12] | 0.1%
CCCCCCCCCCCCCCCCNc1nc(NCCCN2CCN(C)CC2)nc(SCCCCCCC)n1 [Compound D9S7N16] | 29.3%
CCCCCCCCCCCCCCSc1nc(NCCCN2CCOCC2)nc(SCCCCCCC)n1 [Compound D8S7S14] | 21.2%
CCCCCCCNc1nc(NCCCN(C)C)nc(SCCCCCCC)n1 [Compound D6S7N7] | 1.8%
CCCCCCCCCCCCSc1nc(NCCCCCCCCC)nc(NCCN2CCCCC2)n1 [Compound D4S12N9] | 0.7%
CCCCCCCCCCCNc1nc(NCC2CCN(C)CC2)nc(SCCCCCCCCCCC)n1 [Compound D10S11N11] | 27.7%
CCCCCCCCCCCCCCCCCCNc1nc(NCC2CCN(C)CC2)nc(SCCCCCCCCCCCCCCCCCC)n1 [Compound D10S18N18] | 0.1%
CCCCCCCCCCCCCCCCSc1nc(NCCCCCCCC)nc(NCCN2CCOCC2)n1 [Compound D2S16N8] | 19.1%
CCCCCCNc1nc(NCCN(CC)CC)nc(SCCCCCC)n1 [Compound D7S6N6] | 1.2%
CCCCCCCCCCCCCCCCNc1nc(NCCN2CCOCC2)nc(SCCCCCC)n1 [Compound D2S6N16] | 2.2%
CCCCCCCCCCCCCCCCCCNc1nc(NCC2CCN(C)CC2)nc(SCCCCCCCCCCCCCCC)n1 [Compound D10S15N18] | 4.2%
CCCCCCCCCCCCCCCNc1nc(NCCN(C)C)nc(SCCCCCCC)n1 [Compound D1S7N15] | 21.3%
CCCCCCCCCCCCCCCCSc1nc(NCCN2CCN(C)CC2)nc(SCCCCCC)n1 [Compound D5S6S16] | 60.5%
CCCCCCCCCCSc1nc(NCCCCCC)nc(NCC2CCN(C)CC2)n1 [Compound D10S10N6] | 0.5%
CCCCCCCCCCCCSc1nc(NCCCCCCCCC)nc(NCCN(CC)CC)n1 [Compound D7S12N9] | 7.4%
CCCCCCCCCCCCCCCNc1nc(NCCCN2CCN(C)CC2)nc(SCCCCCC)n1 [Compound D9S6N15] | 11.9%
CCCCCCCCCCCCCCCNc1nc(NCC2CCN(C)CC2)nc(SCCCCCC)n1 [Compound D10S6N15] | 7.9%
CCCCCCCCCCCCCCCCCCNc1nc(NCCN2CCOCC2)nc(SCCCCCCCCCC)n1 [Compound D2S10N18] | 0.0%
CCCCCCCCCCCCCCCCCCNc1nc(NCCN2CCOCC2)nc(SCCCCCCC)n1 [Compound D2S7N18] | 5.2%
CCCCCCCCCCCCCCCCSc1nc(NCCCCCC)nc(NCCCN2CCN(C)CC2)n1 [Compound D9S16N6] | 85.7%
CCCCCCCCCCCCCCCNc1nc(NCCCN(C)C)nc(SCCCCCCCCCCCCCC)n1 [Compound D6S14N15] | 0.1%
CCCCCCCCCCCCCCCNc1nc(NCCN2CCOCC2)nc(SCCCCCCCCCCC)n1 [Compound D2S11N15] | 2.8%
CCCCCCCCCCCCCCSc1nc(NCCN2CCCC2)nc(SCCCCCCC)n1 [Compound D3S7S14] | 14.6%

SMILES | Absolute mRNA transfection efficiency in HEK293 cells
CCCCCCCCCCCCCCCCCCSc1nc(NCCCCCCCCCCCCCCCC)nc(NCCN2CCCCC2)n1 [Compound D4S18N16] | 0.4%
CCCCCCCCCCCCCCSc1nc(NCCCCCCCCC)nc(NCCN2CCCCC2)n1 [Compound D4S14N9] | 4.0%
CCCCCCCCCCCCCNc1nc(NCCCN(C)C)nc(SCCCCCCC)n1 [Compound D6S7N13] | 44.9%
CCCCCCCCCCCCSc1nc(NCCN2CCOCC2)nc(SCCCCCC)n1 [Compound D2S6S12] | 1.5%
CCCCCCCCSc1nc(NCCN(C)C)nc(SCCCCCCC)n1 [Compound D1S7S8] | 16.7%
CCCCCCCCCCCCCCCCSc1nc(NCCCN2CCN(C)CC2)nc(SCCCCCC)n1 [Compound D9S6S16] | 38.2%
CCCCCCCCCCCSc1nc(NCCCN(C)C)nc(SCCCCCCCC)n1 [Compound D6S8S11] | 92.3%
CCCCCCCCCCCCCCCCNc1nc(NCCN2CCN(C)CC2)nc(SCCCCCC)n1 [Compound D5S6N16] | 35.4%
CCCCCCCCCCCCSc1nc(NCCCCCCCCC)nc(NCC2CCN(C)CC2)n1 [Compound D10S12N9] | 17.5%
CCCCCCCCCCCCCCCCCCSc1nc(NCCCCCCCCCCC)nc(NCCN2CCCCC2)n1 [Compound D4S18N11] | 0.9%
CCCCCCCCCCCCCCCCCCSc1nc(NCCCCCC)nc(NCCN2CCCC2)n1 [Compound D3S18N6] | 58.9%
CCCCCCCCCCCNc1nc(NCCN2CCN(C)CC2)nc(SCCCCCC)n1 [Compound D5S6N11] | 5.3%
CCCCCCCCCCCCCCCCNc1nc(NCCCN2CCOCC2)nc(SCCCCCCCCCC)n1 [Compound D8S10N16] | 0.2%
CCCCCCCCCCCCCCCSc1nc(NCCCCCC)nc(NCCN(CC)CC)n1 [Compound D7S15N6] | 2.7%
CCCCCCCCCCCCCNc1nc(NCCN2CCCC2)nc(SCCCCCCCCCCCC)n1 [Compound D3S12N13] | 0.3%
CCCCCCCCCCCCNc1nc(NCCCN2CCN(C)CC2)nc(SCCCCCCC)n1 [Compound D9S7N12] | 62.7%
CCCCCCCCCCCNc1nc(NCCCN2CCN(C)CC2)nc(SCCCCCC)n1 [Compound D9S6N11] | 11.9%
CCCCCCCCCCCCCCCCNc1nc(NCC2CCN(C)CC2)nc(SCCCCCC)n1 [Compound D10S6N16] | 41.5%
CCCCCCCCNc1nc(NCCN2CCOCC2)nc(SCCCCCCCC)n1 [Compound D2S8N8] | 0.9%
CCCCCCCCCCCCCCCSc1nc(NCCCCCC)nc(NCCN2CCN(C)CC2)n1 [Compound D5S15N6] | 45.9%
CCCCCCCCCCCCCCCCNc1nc(NCCN2CCCC2)nc(SCCCCCCCCCCCCCC)n1 [Compound D3S14N16] | 1.2%
CCCCCCCCCCCCCCCCCCSc1nc(NCCCCCCCCCCCCCCC)nc(NCCN2CCN(C)CC2)n1 [Compound D5S18N15] | 0.1%
CCCCCCCCSc1nc(NCC2CCN(C)CC2)nc(SCCCCCCC)n1 [Compound D10S7S8] | 32.9%

SMILES | Absolute mRNA transfection efficiency in HEK293 cells
CCCCCCCCCCCCCCSc1nc(NCCCCCCCCCCCCC)nc(NCCN2CCOCC2)n1 [Compound D2S14N13] | 1.1%
CCCCCCCCCCCSc1nc(NCCCN(C)C)nc(SCCCCCCC)n1 [Compound D6S7S11] | 68.6%
CCCCCCCCCCCCCCCNc1nc(NCCN2CCCC2)nc(SCCCCCCCC)n1 [Compound D3S8N15] | 21.8%
CCCCCCCCCCCCNc1nc(NCCN2CCOCC2)nc(SCCCCCCCCCCCC)n1 [Compound D2S12N12] | 0.0%
CCCCCCCCCCCCCCCNc1nc(NCCN2CCCCC2)nc(SCCCCCCCCCCCCCC)n1 [Compound D4S14N15] | 1.7%
CCCCCCCCCCSc1nc(NCCCN2CCOCC2)nc(SCCCCCCCC)n1 [Compound D8S8S10] | 40.9%
CCCCCCCCSc1nc(NCCN(CC)CC)nc(SCCCCCC)n1 [Compound D7S6S8] | 18.9%
CCCCCCCCCSc1nc(NCCCCCCCC)nc(NCCN(C)C)n1 [Compound D1S9N8] | 2.9%
CCCCCCCCCCCCN(CCCCCCCCCCCC)c1nc(NCCCN2CCOCC2)nc(SCCCCCCCCCCC)n1 [D8S11^2N12] | 0.4%
CCCCCCCCNc1nc(NCCCN2CCN(C)CC2)nc(SCCCCCCC)n1 [Compound D9S7N8] | 1.7%
CCCCCCCCCCCCN(CCCCCCCCCCCC)c1nc(NCCCN2CCOCC2)nc(SCCCCCCC)n1 [D8S7^2N12] | 0.6%
CCCCCCCCCCCCSc1nc(NCCCN2CCN(C)CC2)nc(SCCCCCCC)n1 [Compound D9S7S12] | 26.4%
CCCCCCCCCCCCCCCCNc1nc(NCCN(C)C)nc(SCCCCCCCC)n1 [Compound D1S8N16] | 22.5%
CCCCCCCCCCCCCCCSc1nc(NCCCCCCCCCCCCC)nc(NCCN(CC)CC)n1 [Compound D7S15N13] | 5.2%
CCCCCCCCCNc1nc(NCCN(CC)CC)nc(SCCCCCCCCC)n1 [Compound D7S9N9] | 17.8%
CCCCCCCCCCCCSc1nc(NCCN2CCCC2)nc(SCCCCCC)n1 [Compound D3S6S12] | 1.0%
CCCCCCCCCCCCCCCSc1nc(NCCN2CCCC2)nc(SCCCCCCC)n1 [Compound D3S7S15] | 12.0%
CCCCCCCCCCCCNc1nc(NCCN2CCN(C)CC2)nc(SCCCCCC)n1 [Compound D5S6N12] | 4.4%
CCCCCCCCCCCCCCCSc1nc(NCCCCCCCCCCC)nc(NCCCN2CCOCC2)n1 [Compound D8S15N11] | 1.1%
CCCCCCCCCCCCNc1nc(NCCN(C)C)nc(SCCCCCCCCCCC)n1 [Compound D1S11N12] | 27.3%
CCCCCCCCCCCCCNc1nc(NCC2CCN(C)CC2)nc(SCCCCCCCCCCC)n1 [Compound D10S11N13] | 10.4%
